Measurements as given in ChEMBL document CHEMBL3593183, “Polycyclic Polyprenylated Xanthones from Symphonia globulifera: Isolation and Biomimetic Electrosynthesis” (J Nat Prod, 2015).

Test system: HCT-116
Assay: Cytotoxicity against human HCT116 cells after 72 hrs by MTS assay
Assay type: functional, cell-based
Conditions: HCT-116, 72 h

## CC(C)=CCC[C@]1(C)[C@@H](CC=C(C)C)C[C@]2(CC=C(C)C)C(=O)[C@@]1(CC=C(C)C)C(=O)c1c2oc2cc(O)c(O)cc2c1=O
  IC50: 3 µM

## CC(C)=CCC[C@]1(C)[C@@H](CC=C(C)C)C[C@@]2(CC=C(C)C)C(=O)c3c(oc4cc(O)c(O)cc4c3=O)[C@]1(CC=C(C)C)C2=O
  IC50: 8 µM
